Experimental findings from patent US7262269B2, “Method for screening combinational bead library; ligands for cancer cells” (The Regents of University of California, priority 2001, dated 2007) are described below.

For experiment [1], the system named is ovarian cancer cell line CaOV3. The experiment can be described thus: cell-growth-on-bead assay, CaOV3. Type of experiment: cell-based, human. As to the method: (§1) The ratio of cells to beads is preferably about 10:1, but can range from about 1:1 to 100:1. The suspension of cells 10 and beads 12 is mixed gently for sufficient time to assure contact of beads 12 with suspended cells 10. The culture plates are incubated in a tissue culture incubator at about 4° C. to about 37° C., preferably 37° C., for a period of about 24 to about 72 hours. The suspension of cells 10 and beads 12 may be kept still or mixed, either continuously or intermittently, during the incubation period.
(§2) After the incubation period, beads 12 are observed under a dissecting microscope. […] These beads 14 (referred to as “positive” beads) are removed from the culture plates. A tetrazolium dye that stains live, but not dead, cells can be used to facilitate the identification and removal of the positive beads. If a dye is used, all of the beads are removed after the incubation period and resuspended in fresh medium in new culture plates. The dye is added. The plates are then incubated in a tissue culture incubator at 25° C. to 37° C. for about one to four hours. Live cells 10 convert the dye to a colored metabolite, which results in beads 14 with attached cells appearing colored, allowing them to be easily distinguished from beads 16 without attached cells, which appear colorless, as shown in FIG. 1E. Other dyes that stain live cells can also be used. After positive beads 14 are removed from the plates, attached cells 10 are separated from the beads. This can be done with the addition of a chaotrophic agent, such as 8 M guanidine hydrochloride, or a protease, such as trypsin.
(§3) About 150,000 peptide beads were mixed with approximately one million suspended cells in 15 ml of culture medium and distributed into six 3-cm culture plates. The culture plates were agitated gently at about 100 rpm for about 10 minutes. The culture plates were then incubated in a tissue culture incubator at 37° C. for about 24 hours to about 72 hours.
(§4) A dissecting microscope was used to examine the beads at about 24, 48, and 72 hours. After about 24 to 72 hours, beads with a monolayer of cells were observed.
(§5) At the end of the incubation period, all of the beads were removed and resuspended in fresh medium in a new culture plate. An MTT ([3-(4,5-dimethylthiazol-2-yl)-2,5-diphenyl] tetrazolium bromide) (Sigma, St. Louis, Mo.) dye solution was added to each culture plate to a final concentration of 0.5 mg/ml. The plates were incubated in a tissue culture incubator at 37° C. for about two hours to allow the purple color to develop. Each purple-colored peptide bead was isolated and removed. The attached cells were separated from the beads with 8 M guanidine hydrochloride.
(§6) The amino acid sequence of each isolated peptide bead was determined using an automated Procise 494 protein sequencer (Applied Biosystems, Foster City, Calif.). Several consensus peptide sequences were determined, one of which was cNGRGEQc. This peptide was resynthesized on beads, which were then rescreened with the A549 cells using the assay of the invention.
The method as described in Example 1 was performed, except that the combinatorial peptide library was screened with a different type of epithelial cancer cells, the ovarian cancer cell line CaOV3 (American Type Culture Collection).
(§7) As described in Example 1, after culturing for about 24 to 72 hours, beads with a monolayer of cells were observed. These positive beads were isolated and the amino acid sequence of each positive bead was determined, as described in Example 1.
The method as described in Example 1 was performed, except that a different combinatorial library was used and different types of epithelial cancer cells were used. The peptide library of Example 3 was used, except that the concentration of peptides on the surface of each bead was 20% of that used in Example 3, resulting in an increase in screening stringency. […]

The test system of another experiment is epithelial cells. The experiment can be described thus: secondary library screening and structure/activity relationship studies. Type of experiment: cell-based. From the text:
Through additional secondary library screening and structure/activity relationship studies, other ligands for epithelial cells have been identified, including the following: • c-D-G-Chg-G-A-N-c; c-N-G-Bpa-G-Q-M-c; c-N-G-Acdt-G-D-Bpa-c; cNGTGDGc; • cNGQGAGc; cNGYGSFc; c-N-G-Nle-G-Y-G-c; cNGMGAYc; cNGQGEQc; • cRGNGTDc; cNGQGPLc; cNGLGRSc; cDGMGSNc; cNGLGQYc; and • cNGYGTTc.

The test system of experiment [2] is non-epithelial glioblastoma brain cancer cell line A-172. As to the kind of experiment: cell-growth-on-bead assay, A-172. Type of experiment: cell-based, human. The note with it: Example 5, library of Example 3, 24 to 72 hours. The method, then:
as §1, §2, §3, §4, §5, §6
The method as described in Example 1 was performed, except that a different combinatorial library was used and non-epithelial cancer cells were used. A one-bead-one-compound combinatorial peptide library was prepared as described in Example 3.
The peptide library was screened with the non-epithelial glioblastoma brain cancer cell line A-172 (American Type Culture Collection).
as §7

Experiment [3] relates to epithelial ovarian cancer cell line SKOV-3. As to the kind of experiment: cell-growth-on-bead assay, SKOV-3. The experiment is classed as cell-based, human. The method, then: as §1, §2, §3, §4, §5, §6
(§8) The method as described in Example 1 was performed, except that a different combinatorial library was used and different types of epithelial cancer cells were used. A one-bead-one-compound combinatorial peptide library was prepared according to the method described in Example 1, with the following formula: cX2GX4GX6X7c, where “c” is D-cysteine; “G” is glycine; X2 is D,d,N, n, S,Q,q,T, HoSer, Cit, E, e, HoCit, Hyp, Aad, Lys(Ac), A, 4-Pal, D-3-Pal, Pra, D-Pra, Y, Aib, M, Phe(4-CN), Tyr(3-NO2), Tyr(Me), Phe(4-NO2), Bug, Ach, Tyr(3,5-I), Aic, Phe(3-Cl), Chg, Bta, Bpa, Phe(3,4-Cl), Hyp(Bzl), or Cha; and X4, X6 and X7 are N, S, Q, T, HoSer, Cit, HoCit, Hyp, H, A, Pal, D-3-Pal, Pra, R, Y, Aib, Abu, P, M, V, Nva, Tyr(3-NO2), W, Phg, Phe(4-NO2), Bug, I, Ach, L, Nle, Phe(4-Me), Aic, Phe(3-Cl), HoPhe, Chg, Bta, Bpa, 2-Nal, 1-Nal, Phe(3,4-Cl), Hyp(Bzl), or Cha. […]

Experiment [4] concerns epithelial ovarian cancer cell line ES-2. As to the kind of experiment: cell-growth-on-bead assay, ES-2. The experiment is classed as cell-based, human. The method, then:
as §1, §2, §3, §4, §5, §6, §8

[5] abbreviates: Example 4, cX2GX4GX6X7c library, peptide concentration on bead surface 20% of Example 3.
[6] abbreviates: Example 3, cX2GX4GX6X7c library, 24 to 72 hours.
The mark [7] stands for this setting: Example 2, cXXXXXXc library, 24 to 72 hours.

For the substance c-D-G-Cha-G-Hyp-N-c, the “identified as ligand (positive bead with monolayer of cells)” value in experiment [1] (setting [5]) was “identified”. Consider c-D-G-Chg-G-A-N-c, for which, in the experiment with epithelial cells, the “identified as ligand for epithelial cells” value was “identified”. Turning to c-D-G-L-G-P-HoPhe-c, the “identified as ligand (positive bead with monolayer of cells)” value in experiment [2] is reported as “identified”. With c-N-G-Acdt-G-D-Bpa-c, in the experiment on epithelial cells, the “identified as ligand for epithelial cells” value was “identified”.

Consider c-N-G-Bpa-G-Q-M-c, for which, in the experiment with epithelial cells, the “identified as ligand for epithelial cells” value is listed as “identified”. Take c-N-G-Nle-G-(4-Pal)-M-c: the “identified as ligand (positive bead with monolayer of cells)” value in experiment [2] is on record as “identified”. Take c-N-G-Nle-G-Y-G-c: the “identified as ligand for epithelial cells” value in the experiment on epithelial cells is “identified”. Turning to c-d-G-(4-Pal)-G-Phe (4-Me)-T-c, in experiment [2], the “identified as ligand (positive bead with monolayer of cells)” value is listed as “identified”. For c-d-G-(4-Pal)-G-Tyr(3-NO2)-Cha-c, the “identified as ligand (positive bead with monolayer of cells)” value in experiment [3] (setting [6]) is “identified”. c-d-G-A-G-Bta-L-c: the “identified as ligand (positive bead with monolayer of cells)” value in experiment [3] (setting [5]) is “identified”. On to c-d-G-Aib-G-Aib-N-c, for which the “identified as ligand (positive bead with monolayer of cells)” value in experiment [4] (setting [5]) is recorded as “identified”. On the same count and under the same terms, next, c-d-G-Aib-G-P-S-c: “identified”; c-d-G-Bta-G-Hyp-Y-c: “identified”. Regarding c-d-G-Cha-G-1-T-c, the “identified as ligand (positive bead with monolayer of cells)” value in experiment [3] (setting [6]) is “identified”. As for c-d-G-Cha-G-Bta-Q-c, the “identified as ligand (positive bead with monolayer of cells)” value in experiment [4] (setting [5]) was “identified”. With c-d-G-Cha-G-HoCit-Q-c, in experiment [4] (setting [5]), the “identified as ligand (positive bead with monolayer of cells)” value is recorded as “identified”. c-d-G-Cha-G-HoCit-S-c: in experiment [4] (setting [6]), the “identified as ligand (positive bead with monolayer of cells)” value is “identified”. On to c-d-G-Chg-G-Hyp-N-c, for which the “identified as ligand (positive bead with monolayer of cells)” value in experiment [1] (setting [5]) was “identified”. In the case of c-d-G-Cit-G-Hyp(Bzl)-M-c, in experiment [3] (setting [6]), the “identified as ligand (positive bead with monolayer of cells)” value is recorded as “identified”. For the substance c-d-G-HoCit-G-P-Q-c, the “identified as ligand (positive bead with monolayer of cells)” value in experiment [4] (setting [5]) is reported as “identified”.

For the substance c-d-G-L-G-HoSer-T-c, the “identified as ligand (positive bead with monolayer of cells)” value in experiment [4] (setting [6]) was “identified”. Turning to c-d-G-L-G-S-Bpa-c, in experiment [3] (setting [5]), the “identified as ligand (positive bead with monolayer of cells)” value was “identified”. For c-d-G-M-G-HoSer-Nle-c, in experiment [1] (setting [5]), the “identified as ligand (positive bead with monolayer of cells)” value was “identified”. Same read-out and setting: to c-d-G-M-G-S-Cha-c belongs “identified”. Take c-d-G-Nle-G-Phe(3-Cl)-S-c: the “identified as ligand (positive bead with monolayer of cells)” value in experiment [3] (setting [5]) is reported as “identified”.

Turning to c-d-G-Nva-G-Phe (4-CN)-F-c, the “identified as ligand (positive bead with monolayer of cells)” value in experiment [3] (setting [6]) is “identified”. As for c-d-G-Phe(3-Cl)-G-Q-F-c, in experiment [4] (setting [6]), the “identified as ligand (positive bead with monolayer of cells)” value is on record as “identified”. Regarding c-d-G-Phe(4-Me)-G-Aib-S-c, the “identified as ligand (positive bead with monolayer of cells)” value in experiment [4] (setting [5]) was “identified”. c-d-G-Phe(4-Me)-G-T-Pra-c: the “identified as ligand (positive bead with monolayer of cells)” value in experiment [3] (setting [6]) is recorded as “identified”. With c-d-G-Phe(4Me)-G-P-Cha-c, the “identified as ligand (positive bead with monolayer of cells)” value in experiment [4] (setting [6]) is on record as “identified”. Take c-d-G-Phg-G-P-F-c: in experiment [3] (setting [6]), the “identified as ligand (positive bead with monolayer of cells)” value was “identified”. With c-d-G-Tyr(3-NO2)-G-F-L-c, in experiment [1] (setting [5]), the “identified as ligand (positive bead with monolayer of cells)” value is “identified”.

For c-d-G-Tyr(3-NO2)-G-Nle-H-c, the “identified as ligand (positive bead with monolayer of cells)” value in experiment [3] (setting [5]) is “identified”. Take c-d-G-Tyr(3-NO2)-G-Phg-M-c: the “identified as ligand (positive bead with monolayer of cells)” value in experiment [3] (setting [5]) is given as “identified”. Take c-d-G-Tyr(3-NO2)-G-i-Pra-c: in experiment [1] (setting [5]), the “identified as ligand (positive bead with monolayer of cells)” value is recorded as “identified”. With c-d-G-Tyr(3NO2)-G-Pra-G-c, the “identified as ligand (positive bead with monolayer of cells)” value in experiment [3] (setting [6]) is recorded as “identified”.

Turning to c-d-G-Tyr(Me)-G-T-M-c, in experiment [4] (setting [6]), the “identified as ligand (positive bead with monolayer of cells)” value was “identified”.

c-d-G-V-G-Hyp-HoSer-c: in experiment [4] (setting [6]), the “identified as ligand (positive bead with monolayer of cells)” value is listed as “identified”. As to c-e-G-L-G-Nle-M-c, in experiment [2], the “identified as ligand (positive bead with monolayer of cells)” value is “identified”. On the same count and under the same terms, next, c-e-G-N-G-S-(1-Nal)-c: “identified”; c-e-G-y-G-Hyp-W-c: “identified”. In the case of cDGLGDDc, the “identified as ligand (positive bead with monolayer of cells)” value in experiment [1] (setting [7]) and in experiment [2] was “identified” each time. With cDGMGSNc, in the experiment with epithelial cells, the “identified as ligand for epithelial cells” value is recorded as “identified”. In the case of cDGWGPNc, the “identified as ligand (positive bead with monolayer of cells)” value in experiment [1] (setting [7]) and in experiment [2] was “identified” in each case. In the case of cNGLGQYc, the “identified as ligand for epithelial cells” value with epithelial cells was “identified”.

Consider cNGLGRSc, for which the “identified as ligand for epithelial cells” value in the experiment on epithelial cells was “identified”. On to cNGMGAYc, for which, in the experiment on epithelial cells, the “identified as ligand for epithelial cells” value was “identified”. The same measure, in the same setting: next, cNGQGAGc: “identified”; cNGQGEQc: “identified”; cNGQGPLc: “identified”. Consider cNGTGDGc, for which, in the experiment with epithelial cells, the “identified as ligand for epithelial cells” value was “identified”. Still for that read-out and setting: next, cNGYGSFc: “identified”; cNGYGTTc: “identified”.

cRGNGTDc: in the experiment with epithelial cells, the “identified as ligand for epithelial cells” value is reported as “identified”.

For cdGIGPQc, the “identified as ligand (positive bead with monolayer of cells)” value in experiment [3] (setting [6]) was “identified”. On the same count and under the same terms, next, cdGLGFTc: “identified”. In the case of cdGLGWGc, the “identified as ligand (positive bead with monolayer of cells)” value in experiment [4] (setting [5]) is “identified”. As to cdGLGYYc, in experiment [4] (setting [6]), the “identified as ligand (positive bead with monolayer of cells)” value was “identified”. For the substance cdGMGSAc, the “identified as ligand (positive bead with monolayer of cells)” value in experiment [1] (setting [5]) is “identified”.
